Activity data for one compound are collected here from ChEMBL document CHEMBL2073967, “Characterisation of cerivastatin as a P-glycoprotein substrate: studies in P-glycoprotein-expressing cell monolayers and mdr1a/b knock-out mice” (Naunyn Schmiedebergs Arch Pharmacol, 2004).

This data set concerns the target ATP-dependent translocase ABCB1 (Homo sapiens, UniProt P08183). Put plainly: TP_TRANSPORTER: transepithelial transport in L-MDR1 cells. It counts as functional, cell-based. To be noted: pig.

Chain of ATP-dependent translocase ABCB1 (P08183 whole entry): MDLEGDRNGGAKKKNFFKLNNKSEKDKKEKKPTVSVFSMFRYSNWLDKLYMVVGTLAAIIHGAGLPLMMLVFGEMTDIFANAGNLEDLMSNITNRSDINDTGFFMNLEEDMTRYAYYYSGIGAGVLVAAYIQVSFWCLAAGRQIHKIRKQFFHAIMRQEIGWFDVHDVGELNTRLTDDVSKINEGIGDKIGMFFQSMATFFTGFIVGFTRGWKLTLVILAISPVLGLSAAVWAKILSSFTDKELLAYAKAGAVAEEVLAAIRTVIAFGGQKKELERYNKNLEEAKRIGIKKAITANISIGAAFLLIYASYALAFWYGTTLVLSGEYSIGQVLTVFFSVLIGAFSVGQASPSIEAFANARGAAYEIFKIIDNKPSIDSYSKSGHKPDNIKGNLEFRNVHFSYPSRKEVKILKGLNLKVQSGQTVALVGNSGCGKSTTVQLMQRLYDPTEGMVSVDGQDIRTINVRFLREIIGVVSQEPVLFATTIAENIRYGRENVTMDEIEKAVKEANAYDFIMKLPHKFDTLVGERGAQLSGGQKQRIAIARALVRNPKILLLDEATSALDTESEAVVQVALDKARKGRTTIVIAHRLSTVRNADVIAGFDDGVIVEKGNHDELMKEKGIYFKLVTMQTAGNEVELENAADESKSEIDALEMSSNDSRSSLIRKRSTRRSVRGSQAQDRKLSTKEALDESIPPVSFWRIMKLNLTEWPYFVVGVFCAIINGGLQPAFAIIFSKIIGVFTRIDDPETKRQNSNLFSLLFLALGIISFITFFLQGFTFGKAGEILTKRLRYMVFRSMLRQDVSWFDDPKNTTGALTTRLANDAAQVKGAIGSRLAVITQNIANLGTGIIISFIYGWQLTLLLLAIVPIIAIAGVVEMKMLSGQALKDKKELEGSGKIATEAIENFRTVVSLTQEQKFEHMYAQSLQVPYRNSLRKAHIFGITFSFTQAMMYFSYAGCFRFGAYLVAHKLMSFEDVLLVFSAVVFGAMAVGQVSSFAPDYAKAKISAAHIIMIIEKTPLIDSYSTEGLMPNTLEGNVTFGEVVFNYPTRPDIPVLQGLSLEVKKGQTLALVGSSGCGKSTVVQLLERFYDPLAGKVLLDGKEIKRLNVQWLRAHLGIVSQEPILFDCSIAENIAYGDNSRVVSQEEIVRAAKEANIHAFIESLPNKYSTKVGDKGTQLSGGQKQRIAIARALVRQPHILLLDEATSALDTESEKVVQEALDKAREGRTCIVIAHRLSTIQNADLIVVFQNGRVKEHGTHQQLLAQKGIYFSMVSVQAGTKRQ

For the compound `COCc1c(C(C)C)nc(C(C)C)c(/C=C/[C@@H](O)C[C@@H](O)CC(=O)O)c1-c1ccc(F)cc1` [CERIVASTATIN], the Activity result was “substrate [+]”.
